Experimental data published in ChEMBL document CHEMBL4616632, “Discovery of Cyclic Boronic Acid QPX7728, an Ultrabroad-Spectrum Inhibitor of Serine and Metallo-β-lactamases” (J Med Chem, 2020).
Blank lines part the entries; values can stand above or below the compound they belong to.

Tests used:
[1] = Oral bioavailability in rat at 50 to 75 mg/kg by HPLC/MS analysis; assay type: ADME, organism-based; settings: in vivo
[2] = test system: Pseudomonas aeruginosa; test: Inhibition of Pseudomonas aeruginosa PAM 1154 KPC-2 assessed as assessed as minimum potentiating concentration of compound needed to reduce the MIC of biapenem by 64 fold
[3] = test system: Pseudomonas aeruginosa; test: Inhibition of Pseudomonas aeruginosa PAM 1032 KPC-2 assessed as minimum potentiating concentration of compound needed to reduce the MIC of biapenem by 64 fold
[4] = Ratio of inhibition of Pseudomonas aeruginosa PAM 1032 KPC-2 assessed as minimum potentiating concentration of compound needed to reduce the MIC of biapenem by 64 fold to inhibition of Pseudomonas aeruginosa PAM 1154 KPC-2 assessed as assessed as minimum potentiating concentration of compound needed to reduce the MIC of biapenem by 64 fold
[5] = test system: Klebsiella pneumoniae; test: Inhibition of Klebsiella pneumoniae KP1009 CTX-M-15 assessed as minimum concentration of compound required to reduce the MIC of aztreonam to 4 ug/ml
[6] = molecular target: Beta-lactamase OXA-23 (Acinetobacter baumannii) (UniProt Q9L4P2); test: Inhibition of Acinetobacter baumannii AB1054 OXA-23 assessed as minimum concentration of compound needed to reduce the MIC of meropenem to 8 ug/ml
Beta-lactamase OXA-23 (Acinetobacter baumannii), sequence (Q9L4P2 whole entry): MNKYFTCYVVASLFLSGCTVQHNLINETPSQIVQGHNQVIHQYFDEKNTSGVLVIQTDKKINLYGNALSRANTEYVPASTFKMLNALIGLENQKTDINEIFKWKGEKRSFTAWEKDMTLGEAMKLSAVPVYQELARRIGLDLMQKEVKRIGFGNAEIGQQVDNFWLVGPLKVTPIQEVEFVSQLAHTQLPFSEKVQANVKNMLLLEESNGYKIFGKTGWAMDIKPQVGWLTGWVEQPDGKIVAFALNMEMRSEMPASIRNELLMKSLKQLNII

[7] = test system: Escherichia coli; test: Inhibition of Escherichia coli EC302 TEM-10 assessed as minimum concentration of compound needed to reduce the MIC of aztreonam to 4 ug/ml
[8] = test system: Enterobacter cloacae; test: Inhibition of Enterobacter cloacae ECL1002 AmpC assessed as minimum concentration of compound needed to reduce the MIC of aztreonam to 4 ug/ml
[9] = test system: Klebsiella pneumoniae; test: Inhibition of Klebsiella pneumoniae KP1160 IMP-26 assessed as minimum concentration of compound needed to reduce the MIC of meropenem to 1 ug/ml
[10] = test system: Escherichia coli; test: Inhibition of Escherichia coli ECM6625 SHV-5 assessed as minimum concentration of compound needed to reduce the MIC of aztreonam to 4 ug/ml
[11] = molecular target: Beta-lactamase (Klebsiella pneumoniae) (UniProt Q93LQ9); test: Inhibition of Klebsiella pneumoniae KP1004 KPC-2 assessed as minimum concentration of compound needed to reduce the MIC of aztreonam to 4 ug/ml
Beta-lactamase (Klebsiella pneumoniae), sequence (Q93LQ9 as listed by the source): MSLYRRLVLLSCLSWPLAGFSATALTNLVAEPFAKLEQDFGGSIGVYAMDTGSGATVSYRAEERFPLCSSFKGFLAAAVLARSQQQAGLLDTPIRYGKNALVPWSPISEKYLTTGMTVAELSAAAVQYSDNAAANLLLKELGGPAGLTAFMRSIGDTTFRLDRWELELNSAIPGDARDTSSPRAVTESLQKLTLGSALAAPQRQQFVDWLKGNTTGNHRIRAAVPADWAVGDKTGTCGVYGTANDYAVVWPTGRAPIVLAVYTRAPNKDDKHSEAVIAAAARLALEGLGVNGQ

[12] = test system: Pseudomonas aeruginosa; test: Inhibition of Pseudomonas aeruginosa PAM 2035 AmpC assessed as minimum concentration of compound needed to reduce the MIC of aztreonam to 4 ug/ml
[13] = test system: Escherichia coli; test: Inhibition of Escherichia coli ECM6619 TEM-10 assessed as minimum concentration of compound needed to reduce the MIC of aztreonam to 4 ug/ml
[14] = test system: Escherichia coli; test: Inhibition of Escherichia coli KP308 SHV-5 assessed as minimum concentration of compound required to reduce the MIC of aztreonam to 4 ug/ml
[15] = test system: Acinetobacter baumannii; test: Inhibition of Acinetobacter baumannii AB1053 OXA-72 assessed as minimum concentration of compound needed to reduce the MIC of meropenem to 8 ug/ml
[16] = test system: Klebsiella pneumoniae; test: Inhibition of Klebsiella pneumoniae KP1081 NDM-1 assessed as minimum concentration of compound required to reduce the MIC of biapenem to 1 ug/ml
[17] = test system: Klebsiella pneumoniae; test: Inhibition of Klebsiella pneumoniae KP1054 VIM-1 assessed as minimum concentration of compound required to reduce the MIC of biapenem to 1 ug/ml
[18] = molecular target: Beta-lactamase (Klebsiella pneumoniae) (UniProt Q93LQ9); test: Inhibition of Klebsiella pneumoniae KP1004 KPC-2 assessed as minimum concentration of compound needed to reduce the MIC of biapenem to 1 ug/ml
[19] = molecular target: Class A carbapenemase KPC-2 (Escherichia coli, UniProt A8DS27); test: Inhibition of recombinant Escherichia coli KPC-2 using nitrocefin as substrate preincubated for 10 mins followed by substrate addition and measured every 10 secs for 10 mins by spectrophotometric analysis
Class A carbapenemase KPC-2, sequence (A8DS27 whole entry): as the sequence (Q93LQ9 as listed by the source) above

[20] = Inhibition of recombinant Escherichia coli NDM-1 using imipenem as substrate preincubated for 10 mins followed by substrate addition and measured every 30 secs for 30 mins by spectrophotometric analysis
[21] = test system: Klebsiella pneumoniae; test: Inhibition of Klebsiella pneumoniae KP1081 NDM-1 assessed as minimum concentration of compound needed to reduce the MIC of biapenem to 1 ug/ml
[22] = test system: Klebsiella pneumoniae; test: Inhibition of Klebsiella pneumoniae KP1086 OXA-48 assessed as minimum concentration of compound needed to reduce the MIC of biapenem to 1 ug/ml
[23] = Inhibition of recombinant Escherichia coli OXA-48 using nitrocefin as substrate preincubated for 10 mins followed by substrate addition and measured every 10 secs for 10 mins by spectrophotometric analysis
[24] = molecular target: Beta-lactamase OXA-23 (Acinetobacter baumannii, UniProt Q9L4P2); test: Inhibition of Acinetobacter baumannii OXA-23 using nitrocefin as substrate preincubated for 10 mins followed by substrate addition measured every 10 secs for 10 mins by spectrophotometrically analysis
Beta-lactamase OXA-23, sequence (Q9L4P2 whole entry): as the sequence (Q9L4P2 whole entry) above

[25] = Inhibition of recombinant Escherichia coli SHV-12 using nitrocefin as substrate preincubated for 10 mins followed by substrate addition measured every 10 secs for 10 mins by spectrophotometrically analysis
[26] = molecular target: BlaVIM-1 (Escherichia coli, UniProt Q8GDC1); test: Inhibition of recombinant Escherichia coli VIM-1 using nitrocefin as substrate preincubated for 10 mins followed by substrate addition measured every 10 secs for 10 mins by spectrophotometrically analysis
[27] = Inhibition of recombinant Escherichia coli CTX-M-14 using nitrocefin as substrate preincubated for 10 mins followed by substrate addition measured every 10 secs for 10 mins by spectrophotometrically analysis
[28] = Inhibition of recombinant Escherichia coli AmpC using nitrocefin as substrate preincubated for 10 mins followed by substrate addition measured every 10 secs for 10 mins by spectrophotometrically analysis
[29] = Inhibition of […] OXA-48 using nitrocefin as substrate preincubated for 10 mins followed by substrate addition measured every 10 secs for 10 mins by spectrophotometrically analysis
[30] = Inhibition of recombinant Escherichia coli IMP-1 using imipenem as substrate preincubated for 10 mins followed by substrate addition measured every 30 secs for 30 mins by spectrophotometrically analysis
[31] = Drug metabolism in monkey assessed as oxidative-deboronation by measuring 2-hydroxy-3-(2-hydroxyethyl)-6-methoxy-benzoic acid formation; assay type: ADME, Macaca mulatta; settings: rhesus monkey
[32] = Oral bioavailability in rat; assay type: ADME, organism-based; settings: in vivo
[33] = Drug metabolism in dog assessed as oxidative-deboronation by measuring 2-hydroxy-3-(2-hydroxyethyl)-6-methoxy-benzoic acid formation; assay type: ADME, Canis lupus familiaris

Compound: COc1ccc2c(c1C(=O)O)OB(O)[C@@H](NC(=O)CSC1CNC1)C2
Activity [2]: 5 µg/mL
Activity [3]: 5 µg/mL
Ratio [4]: 1

Compound: Nc1nnc(SCC(=O)N[C@H]2Cc3cccc(C(=O)O)c3OB2O)s1
Activity [18]: 0.08 µg/mL
Ki [19]: 21 nM
Ki [20]: 7400 nM
Activity [21]: > 20 µg/mL
Activity [22]: 2.5 µg/mL
Ki [23]: 0.5 nM

Compound: O=C(O)C[C@@H]1CC[C@H](NC(=O)Cc2cccs2)B(O)O1 [VABORBACTAM]
Ki [24]: > 40000 nM
Ki [25]: 21 nM
Ki [19]: 56 nM
Ki [26]: > 40000 nM
Ki [20]: > 40000 nM
Ki [27]: 33 nM
Ki [28]: 35 nM
Ki [29]: 14000 nM
Ki [30]: > 40000 nM

Compound: O=C(CSC1CNC1)N[C@H]1Cc2cccc(C(=O)O)c2OB1O
Activity [2]: 2.5 µg/mL
Activity [3]: 2.5 µg/mL
Ratio [4]: 1

Compound: O=C(Cc1cccs1)N[C@H]1Cc2ccc(F)c(C(=O)O)c2OB1O
Activity [2]: 10 µg/mL
Activity [3]: 40 µg/mL
Ratio [4]: 4

Compound: COc1ccc2c(c1C(=O)O)OB(O)CC2
MEC [5]: 0.6 µg/mL
MEC [6]: 0.6 µg/mL
MEC [8]: 0.3 µg/mL
MEC [9]: > 20 µg/mL
MEC [10]: 0.6 µg/mL
MEC [11]: 0.16 µg/mL
MEC [12]: 1.25 µg/mL
Drug metabolism [31]: Metabolite_Detected
MEC [13]: 0.08 µg/mL
MEC [15]: 0.6 µg/mL
bioavailability [32]: 50%
MEC [16]: 0.6 µg/mL
Drug metabolism [33]: Metabolite_Detected
MEC [17]: 0.6 µg/mL

Compound: O=C(Cc1cccs1)N[C@H]1Cc2cccc(C(=O)O)c2OB1O
Activity [2]: 2.5 µg/mL
Activity [3]: 80 µg/mL
Ratio [4]: 32

Other lines, results leading:

bioavailability [1]: 100%
Compound: COc1ccc2c(c1C(=O)OCOC(=O)C(C)C)OB(O)[C@@H](Sc1nncs1)C2

bioavailability [1]: 64%
Compound: CCOC(=O)OCOC(=O)c1c(OC)ccc2c1OB(O)[C@@H](Sc1nncs1)C2

MEC [5]: 2.5 µg/mL
bioavailability [1]: 3%
MEC [6]: > 20 µg/mL
MEC [7]: 2.5 µg/mL
MEC [8]: 10 µg/mL
MEC [9]: 5 µg/mL
MEC [10]: 0.3 µg/mL
MEC [11]: 1.25 µg/mL
MEC [12]: 10 µg/mL
MIC [13]: 2.5 µg/mL
MEC [14]: 0.3 µg/mL
MEC [15]: > 20 µg/mL
MEC [16]: 0.3 µg/mL
MEC [17]: 0.3 µg/mL
Compound: COc1ccc2c(c1C(=O)O)OB(O)[C@@H](Sc1nncs1)C2

bioavailability [1]: 100%
Compound: COc1ccc2c(c1C(=O)OCOC(=O)C(C)(C)C)OB(O)[C@@H](Sc1nncs1)C2

Activity [2]: 5 µg/mL
Activity [3]: 40 µg/mL
Ratio [4]: 8
Compound: COc1ccc2c(c1C(=O)O)OB(O)[C@@H](NC(=O)Cc1cccs1)C2
